In a melting point compilation (Tetko et al.; mined from patent text by program, amines drawn as free bases though some values may be those of a salt):

Row | melting point [°C] | SMILES
1 | 168 to 169 | CC(C)c1cccc(C(C)C)c1NC(=S)CCC(=O)c1ccccc1
2 | 39 to 41 | C[Si](C)(C)CC(C#N)CC(=O)O (stereo not given)
3 | 233 to 235 | CCN1C(C(=O)Nc2cncc(Cl)n2)=C(O)c2ccccc2S1(=O)=O
4 | 76.1 to 77.3 | CCCCC(CC)C(=O)NCCCCCCCCCCCOCC(O)CNCCO (stereo not given)
5 | 200 to 202 | O=C(Nc1ccc2nc(CN3CCN=C3Cc3ccccc3)ccc2c1)c1ccc(-c2ccc(F)cc2)cc1
6 | 269 to 272 | CC(C)c1nc2c(N)nc(-c3ccncc3)nc2[nH]1
7 | 131 to 133 | Nc1cc(Cl)ccc1C(=O)NO
8 | 108 to 109 | Cc1nc(-c2cn(Cc3ccccc3)nn2)sc1C(=O)NCc1ccccc1
9 | 84 to 85.5 | Cc1ccc(C(=O)c2ccc(C)cc2F)c(F)c1
10 | 149 to 151 | CC(=O)OC1C(OC2=NN(Cc3ccccc3)C(=O)C3CC23)c2cc(C#N)ccc2OC1(C)C (stereo not given)
11 | 127 | CCSc1ccc(NC=O)cc1S(N)(=O)=O
12 | 133 to 134 | COc1ccc(-c2cc(=O)n(CCc3ccc(Cl)cc3)nc2-c2ccc(OC)cc2)cc1
13 | 54 to 56 | Brc1ccc(C2(c3ccccc3)OCCO2)cc1
14 | 106 | CCOC(=O)c1ccc(N2CCN(C)CC2)nn1
15 | 229 | COc1ccc(CNc2ncccc2C(=O)O)cc1
16 | 160 to 163 | COC(=O)c1ncc(C(=O)NS(=O)(=O)c2ccccc2)cc1OC
17 | 98 to 100 | CC1OC(Sc2ccccc2)C(OCc2ccccc2)C(OC(=O)c2ccccc2)C1OC(=O)c1ccccc1 (stereo not given)
18 | 176 to 178 | O=C(Cc1cc2ccccc2[nH]1)Nc1ccc(-n2nc(C(F)(F)F)cc2C(F)(F)F)cc1
19 | 138 to 139 | CC(C)Cn1c(C(=O)OC(C)(C)C)c(-c2ccccc2)c2cc(OCc3ccccc3)ccc2c1=O
20 | 54 | Cn1nnc(N(Cc2ccccc2)C(=O)C2CCCC2)n1
21 | 200 to 204 | Cc1ccc(C2(n3ccnc3)c3ccccc3C(=O)c3ccccc32)cc1
22 | 100 to 102 | CCCCOC(=O)Oc1cc(-n2c(OCC)nc(C(F)(F)F)cc2=O)c(F)cc1Cl
23 | 160 to 162 | CC(=O)C1CCC2C3CCC4CC(O)CCC4(C)C34OC4CC12C (stereo not given)

Row | melting point [°C] | SMILES
24 | 112 to 114 | COc1ccc(C2(O)CCN(Cc3ccccc3)CC2)cc1OC
25 | 46 | NS(=O)(=O)c1ccc(-c2c(-c3ccccc3)noc2COCC(F)(F)C(F)(F)CO[N+](=O)[O-])cc1
26 | 113 | O=C(C=Cc1ccccc1)Oc1ccc(Br)cc1
27 | 80 to 81 | OCCOCCn1c2ccccc2c2ccccc21
28 | 171 to 182 | CCc1ccc(-c2cc3ncnc(Nc4ccc5[nH]ccc5c4)c3s2)cc1
29 | 159 to 161 | COc1c(Cc2ccccc2)cc(S(N)(=O)=O)c2ccccc12
30 | 80 to 86 | Cc1ccc2oc(NC(CC3CCCCC3)c3ccccn3)nc2c1 (stereo not given)
31 | 127 to 129 | CC(C)(CO)NC(N)=S
32 | 231 to 234 | CS(=O)(=O)c1cccc(NC(=O)c2cnn3c(C4CC4)cc(-c4ccc(C(F)(F)F)cc4)nc23)c1
33 | 160 to 162 | O=C(NC(=O)c1c(Cl)cccc1Cl)Nc1ccc(Sc2ccc(Cl)cc2)nc1
34 | 89 to 90 | COc1ccc(-c2nc(Cn3ccnc3)cs2)cc1
35 | 125 to 132 | Cc1ccc(C)n1-c1c(C(C)C)cc([N+](=O)[O-])cc1C(C)C
36 | 158 to 160 | CCOC(=O)C1(Cc2ccccc2)CC(=O)N(c2ccnc(NC(=O)NCc3ccccn3)c2)C1 (stereo not given)
37 | 56 to 58 | Cc1cc(OC(F)F)nc(NC(=O)Oc2ccccc2)n1
38 | 156 to 157 | O=C(O)CCCc1ncccc1NS(=O)(=O)c1ccccc1
39 | 122 to 123 | Cc1nccn1CCCCc1ccc(OCc2coc(/C=C/c3ccccc3)n2)cc1
40 | 113 to 115 | CNC(=O)N1CCC(c2nn(-c3ccc(F)cc3)c3ccccc23)CC1
41 | 197 | CCOP(=O)(Cn1c(=O)c(=O)[nH]c2cc([N+](=O)[O-])ccc21)OCC
42 | 82 to 84 | CN(CCc1ccccn1)C(=O)CCSc1cc(C(C)(C)C)c(O)c(C(C)(C)C)c1
43 | 95 to 96 | N#CCC(=O)c1cccc(Oc2ccccc2)c1
44 | 66 to 68 | CC(C#N)S[C@H](C)[C@](O)(Cn1cncn1)c1ccc(F)cc1F (stereo not given in full)
45 | 174 to 187 | CC(=O)Nc1cccc(-c2ccc3nc(-c4cccnc4N)n(-c4ccc(CNC(=O)c5cccc(F)c5)cc4)c3n2)c1
46 | > 260 | CCn1c(N)c(C(N)=O)c(=O)c2cnc(Nc3ccc(O)cc3)nc21

Row | melting point [°C] | SMILES
47 | 142 to 143 | C#CCn1c(=O)n(CCN2CCN(c3ccccc3OC)CC2)c(=O)c2cscc21
48 | 132 to 135 | CCOC(=O)C1=C(C)NC(c2cnc(N)s2)=NC1c1ccc(F)cc1Cl (stereo not given)
49 | 240 to 244 | COc1nc2cc(Cl)c(Cl)c(N(S(C)(=O)=O)S(C)(=O)=O)c2nc1OC
50 | 168 to 171 | CC(O)(C=Cc1ccc(S(=O)(=O)c2ccncc2)cc1)C(F)(F)F (stereo not given)
51 | 91 to 94 | CCCC1C=C2NC(=O)CC[C@]2(C)[C@H]2CC[C@]3(C)[C@@H]([C@H](C)CCCC(C)C)CC[C@H]3[C@H]12 (stereo not given in full)
52 | 203 to 205 | COc1cc2c(Nc3ccc(Sc4ccccn4)c(Cl)c3)c(C#N)cnc2cc1N1CCC(N2CCCC2)CC1
53 | 160 to 162 | CC(=O)C(O)C1OC(n2cc(C#N)c(=O)[nH]c2=O)CC1C(C)=O (stereo not given)
54 | 112 | Cc1cc(-n2cccn2)c2cccc(OCc3c(Cl)ccc(S(=O)(=O)N4CCC[C@H]4C(=O)NCC4CCN(CCCO)CC4)c3Cl)c2n1
55 | 114 to 115 | CON(C)C(=O)c1cccc(-c2nc3sccn3c2-c2ccnc(N[C@@H]3CCCN(S(=O)(=O)c4ccc(Cl)cc4)C3)n2)c1
56 | > 300 | CNc1nc(C2C(=O)Nc3ccccc32)c2cn(C3CCCC3)nc2n1 (stereo not given)
57 | 106 to 108 | COC(=O)c1cccc(OC)c1S(=O)(=O)Cl
58 | 214 to 215 | NC(=O)c1cccc2c1C1(COc3cc4c(cc31)OCCO4)CN2Cc1ccccn1 (stereo not given)
59 | 120 to 121 | CCOc1cc2ncnc(N3CCN(C(=O)Nc4ccc([N+](=O)[O-])cc4)CC3)c2cc1OCC
60 | 174 | COc1ccc2c(c1)OC(C)(C)C(NC(=O)c1cc(Cl)ccc1OC)C2=O (stereo not given)
61 | 245 to 248 | O=C(Nc1nc(-c2ccccn2)nc2ccccc12)C(F)(F)F
62 | 231 | CC(=O)C1=C(O)C(=C(C)Nc2cc(NC(=O)C(O)CO)cc(NC(=O)C(O)CO)c2)C(=O)OC1=O (stereo not given)
63 | 102 to 103 | Fc1ccc(N2CCN(CCCOc3ccccc3-c3nnco3)CC2)cc1
64 | 161 to 164 | CCCCc1nc2c(N)nc3ccc(OCc4ccccc4)cc3c2n1CCCCN
65 | 126 to 127 | CCOC(=O)c1ccc(NCCOc2ccc(Br)c3ccccc23)cc1
66 | 23.3 | CCCCc1ccc(-c2ccc(OC)cc2F)nc1
67 | 153 to 155 | CCOC(=O)N1CCC2C(O)CCCC21 (stereo not given)
68 | 131 to 133 | COc1ccc(CCCNS(=O)(=O)Cc2ccc3[nH]cc(CC#N)c3c2)cc1
69 | 67 to 68.5 | COc1ccc(CCl)c(C)c1OC

Row | melting point [°C] | SMILES
70 | 246 to 248 | COc1cc(OC)c2c(=O)[nH]c(-c3ccc(OCCO)c(OC)c3)nc2c1
71 | 79 | O=C(c1cc(F)cc(F)c1)c1cc(F)cc(F)c1
72 | 108 to 110 | COC(=O)c1cc2cc(OC)c(OCCCl)cc2nc1N=CN(C)C
73 | 155 to 157 | N#CNC(=N)CCCc1ccccc1Sc1ccccc1CCCC(=N)NC#N
74 | 80 | Cn1cncc1C1(C(c2cccs2)c2cccs2)CCOC1=O (stereo not given)
75 | 186 to 187 | COc1cc(COc2nn(-c3ccccc3)cc2/C=C/c2nnc(C)o2)ccc1OCc1nc(-c2ccco2)oc1C
76 | 179 to 182 | COC(=O)N[C@@H](Cc1ccc(OCc2ccccc2)cc1)C(=O)Nc1c(C(C)C)cccc1C(C)C
77 | 159 to 160 | Cn1ncc(/C=C/C(=O)Nc2ccc(Cc3nc(C(N)=O)cs3)cc2)c1-c1ccc(F)cc1
78 | 98 to 99 | CC1(C)CCC(C)(C)c2cc(CC#Cc3ccc(C(=O)N4CCOCC4)cc3)ccc21
79 | 109 to 110 | CCOC(=O)Nc1c(Cl)cccc1[Si](C)(C)C
80 | 205 to 212 | Cc1nc(-c2ccc(O)cc2)[nH]c1Br
81 | 182 | C[C@H]1C(=O)OCCN1CC=CC(=O)Nc1cc2c(Nc3ccc(F)c(Cl)c3)ncnc2cc1OCC1CC1
82 | 65 to 70 | COc1cc2c(cc1Nc1ncc(Cl)c(NC3(C(=O)OC(C)C)CCCC3)n1)CCN(CC(=O)N(C)C)CC2
83 | 85 to 87 | CC(=O)OC1CC(OCc2ccccc2)C2COC1O2 (stereo not given)
84 | 242 to 243 | Cc1cncc(-c2nc(C(F)(F)F)cn2-c2ccc(S(N)(=O)=O)cc2)c1
85 | 235 to 249 | O=C(O)c1ccc(-c2c([N+](=O)[O-])oc3ccc(-c4ccccc4)cc23)cc1
86 | 217 to 220 | c1csc(-c2nc3ccc(N4CCNCC4)nn3c2-c2ccncc2)c1
87 | 105 to 106 | CCOC(=O)C(CC(=O)OC1CC2CCC1(C)C2(C)C)(NC(=O)OCc1ccccc1)C(N)=O (stereo not given)
88 | 244 to 246 | Cc1ccc(S(=O)(=O)n2ccc3c(-c4c(-c5ccc(F)cc5)nc5ccc(Cl)nn45)ccnc32)cc1
89 | 94.5 to 96 | CC(=O)NCc1ccc(CN2CCN(c3ccc(F)cc3[N+](=O)[O-])CC2)cc1
90 | 227 to 229 | COc1ccc(C(C)C)cc1-c1cc(-c2nnnn2C2CCCN(C(=O)OC(C)(C)C)C2)c(O)cc1O (stereo not given)
91 | 133 to 134 | CCCCCCCCCCCCCCC(=O)c1ccc2cc(O)c(O)cc2c1
92 | 169 | Cc1c(NC(=O)c2ccc(OC[C@@H]3CCCO3)cc2)ccc2cc(CN3CCC(C)(O)CC3)[nH]c12

Row | SMILES | melting point [°C]
93 | CNC(=O)Oc1cccc(NC(=O)CC(C)(OC)OC)c1 | 139
94 | COc1ccccc1N1CCC(CNC(=O)Nc2c(C(C)C)cc(N)cc2C(C)C)(c2cccc(OCCCO)c2)CC1 | 203 to 205
95 | CC(C)(C)C(=O)Nc1nc(CN2CCC(c3c[nH]c4ccccc34)CC2)cs1 | 93 to 96
